According to patent US10322132B2, “Prevention or treatment of uratic or gouty diseases” (SHANTON PHARMA CO., LTD., priority 2015, dated 2019):

How the values were obtained:
serum uric acid [1] = assay: Uric acid-lowering experiment in cynomolgus monkeys; type: in vivo; design: Reduction rate of serum uric acid: concentration or dose not given beside the values; conditions: for effect on serum uric acid levels in the test monkeys (in words): compared to the levels measured before administration; for Reduction rate of serum uric acid / Content of serum uric acid: intravenous
Procedure: The experiment was done by reference to Komoriya K, Osada Y, Hasegawa M, Horiuchi H, Kondo S, Couch R C, Griffin T B. Hypouricemic effect of allopurinol and the novel xanthine oxidase inhibitor TEI-6720 in chimpanzees. Eur J Pharmacol. 1993 Dec. 21; 250(3): 455-60.
Each compound was tested in three non-naïve cynomolgus monkeys (1 #, 2 # and 3 #), wherein the monkeys were administered with test samples by intravenous injection. Blood was collected from the vein before administration and 1 h, 3 h, 6 h and 24 h after administration. The blood was left still at room temperature. The serum was collected by centrifugation. The content of uric acid in serum was measured. Reduction rate of serum uric acid=(average uric acid content before administration−average uric acid content after administration)/average uric acid content before administration*100%.

TNF-α = assay: LPS-induced TNF-α release; type: in vivo, Male BALB/C mice
Procedure: The experiment was conducted by reference to Pascale Gaillard, Isabelle Jeanclaude-Etter, etc. Design and Synthesis of the First Generation of Novel Potent, Selective, and in Vivo Active (Benzothiazol-2-yl)acetonitrile
BALB/C mice were raised in the SPF-grade animal room for 1 week, and were then randomly divided into the corresponding model group and the administration groups according to the body weight. The […] were administered with the solvent or the test samples by subcutaneous injection at a dose of 10 mg/kg. The rats were administered with LPS by intraperitoneal injection at a dose of 15 mg/kg 30 min after the administration of the solvent or the test samples. The mice were anesthetized with sodium pentobarbital (45 mg/kg by intraperitoneal injection) 1 h after LPS administration. The blood was collected by cardiac puncture, and the content of TNF-α (tumor necrosis factor) in plasma was measured with a Mouse TNF-α Elisa Ready-set-go kit.

serum uric acid [2] = assay: Uric acid-lowering test in monkeys having hyperuricemia (UA subcutaneous injection); type: in vivo, cynomolgus monkeys; design: Reduction rate or serum uric acid: concentration or dose not given beside the values; conditions: for Content of serum uric acid: Administration group
Procedure: The experiment was conducted by reference to Komoriya K, Osada Y, Hasegawa M, Horiuchi H, Kondo S, Couch R C, Griffin T B. Hypouricemic effect of allopurinol and the novel xanthine oxidase inhibitor TEI-6720 in chimpanzees. Eur J Pharmacol. 1993 Dec. 21; 250(3): 455-60.
In the Model group, three non-naïve cynomolgus monkeys (1 #, 2 # and 3 #) were administered with UA by subcutaneous injection at the nape. Blood was collected from the vein before UA administration and 0.5 h, 1 h, 2 h, 4 h, 6 h and 24 h after UA administration. The blood was left still at room temperature. The serum was collected by centrifugation. The content of serum uric acid was measured.
In the Administration group, three non-naïve cynomolgus monkeys (1 #, 2 # and 3 #) were administered with the test sample by intravenous injection after 2 weeks of clearance. Blood was collected from the vein before administration and 2 h after administration of test sample. Then, the monkeys were administered with UA by subcutaneous injection at the nape and blood was collected from the vein 1 h, 2 h and 4 h after the UA administration. The blood was left still at room temperature. The serum was collected by centrifugation. The content of serum uric acid was measured. Reduction rate of serum uric acid in healthy monkeys administered with test sample=(average uric acid content before administration−average uric acid content 2 h after administration of test sample)/average uric acid content before administration*100%, Reduction rate of serum uric acid in monkeys having hyperuricemia after administration of test sample=(uric acid content after UA administration in the model group−uric acid content after UA administration in the administration group)/uric acid content in the model group*(100%).
That was, the samples were collected before administration, 2 h after administration of test sample and 1 h, 2 h and 4 h after UA administration for determination of the serum uric acid content. The contents of serum uric acid in the model group and the administration group and the reduction rates of serum uric acid were shown in the following Tables 3-1, 3-2 and 3-3, respectively.

IL-1β, IL-6, KC and TNFα = assay: Air sacculitis (MSU-induced air sacs), cytokines in lavage fluid; conditions: for IL-1β / KC / TNF-α: lavage fluid supernatant, mean, n = 8
Procedure: (§1) The sterile MSU crystals were added to 5 mL of sterilized saline before injected into air sacs.
(§2) Male Wistar rats were raised for one week and then randomly divided into 6 groups. Animals were anesthetized and then injected with 24 mL of sterile air in their backs. The animals received the second injection of air 4 days later. On day 7, the rats in the blank group and model group were intragastrically administered with the solvent at a dose of 10 mL/kg; the rats in the dexamethasone group were administered by intraperitoneal injection with dexamethasone at a dose of 5 mg/kg; the rats in the colchicine group were intragastrically administered with colchicine at a dose of 5 mg/kg. […] One hour after administration, the rats in the blank group were injected with 5 mL of saline into the air sacs at the back, and the rats from other groups were injected with 5 mL of MSU crystal suspension (1 mg/mL) into the air sacs at the back. Four hours later, the lavage fluid in the air sacs was taken, and a portion of the lavage fluid was used for cytological analysis. The remaining was centrifuged at 8000 rpm for 15 min, and the supernatant was stored at −80° C. for the detection of cytokines IL-1β, IL-6, KC and TNFα. The test results were shown as mean±SEM and statistically analyzed by t-test.

MSU-induced air sacs = assay: Air sacculitis (MSU-induced air sacs), leukocyte counts in lavage fluid; conditions: for Leukocyte count: Basophil / Leukocyte count: Eosinocyte / Leukocyte count: Lymphocyte / Leukocyte count: Monocyte / Leukocyte count: Neutrophil / Total cell count: lavage fluid 4 h after MSU, mean ± SEM, n = 8;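 as to all read-outs here: male Wistar rats with dorsal air sacs, dosed 1 h before injecting MSU crystal suspension, compared with saline-injected blank and vehicle-treated model groups, cytological analysis of lavage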
Procedure: as §1, §2

[3] = 3 h after administration vs before administration, animal 1#
[4] = 3 h after administration vs before administration, animal 2#
[5] = 3 h after administration vs before administration, mean
[6] = 3 h after administration, animal 1#
[7] = 3 h after administration, animal 2#

CCCCCn1c(=O)n(C)c(=O)c2[nH]c(Cl)nc21 [Compound D, 8-chloro-1-methyl-3-pentyl-3,7-dihydro-1H-purine-2,6-dione]
effect on serum uric acid levels in the test monkeys (in words) (serum uric acid [1]): significantly reduce | Reduction rate of serum uric acid (serum uric acid [1]; [3]): 14.3% | Reduction rate of serum uric acid (serum uric acid [1]; [4]): 13.6% | Reduction rate of serum uric acid (serum uric acid [1]; [5]): 13.9% | Content of serum uric acid (serum uric acid [1]; [6]): 49.6 µmol/L | Content of serum uric acid (serum uric acid [1]; [7]): 47.1 µmol/L | Content of serum uric acid (serum uric acid [1]; 3 h after administration, mean): 48.4 µmol/L | inhibition (%) (TNF-α; TNF-α in plasma vs model group, 10 mg/kg subcutaneous): 29.6% | effect on content of TNF-α in the plasma of the test mice (in words) (TNF-α; compared with the model group): significantly reduce | Content of TNF-α (TNF-α; plasma, 10 mg/kg subcutaneous 30 min before LPS 15 mg/kg i.p., 1 h after LPS): 1124 pg/mL

CCCCCn1c(=O)[nH]c(=O)c2[nH]c(Cl)nc21 [Compound A, 8-chloro-3-pentyl-3,7-dihydro-1H-purine-2,6-dione]
effect on serum uric acid levels in the test monkeys (in words) (serum uric acid [1]): significantly reduce | Reduction rate of serum uric acid (serum uric acid [1]; [3]): 18.5% | Reduction rate of serum uric acid (serum uric acid [1]; [4]): 38.0% | Reduction rate of serum uric acid (serum uric acid [1]; 3 h after administration vs before administration, animal 3#): 5.98% | Reduction rate of serum uric acid (serum uric acid [1]; [5]): 22.8% | Content of serum uric acid (serum uric acid [1]; [6]): 61.9 µmol/L | Content of serum uric acid (serum uric acid [1]; [7]): 57.0 µmol/L | Content of serum uric acid (serum uric acid [1]; 3 h after administration, animal 3#): 59.9 µmol/L | Content of serum uric acid (serum uric acid [1]; 3 h after administration, mean): 59.6 µmol/L | Reduction rate of serum uric acid (serum uric acid [1]; 6 h after administration vs before administration, animal 1#): 10.9% | Reduction rate of serum uric acid (serum uric acid [1]; 6 h after administration vs before administration, animal 2#): 48.2% | Reduction rate of serum uric acid (serum uric acid [1]; 6 h after administration vs before administration, animal 3#): 20.9% | Reduction rate of serum uric acid (serum uric acid [1]; 6 h after administration vs before administration, mean): 28.5% | Content of serum uric acid (serum uric acid [1]; 6 h after administration, animal 1#): 67.6 µmol/L | Content of serum uric acid (serum uric acid [1]; 6 h after administration, animal 2#): 47.6 µmol/L | Content of serum uric acid (serum uric acid [1]; 6 h after administration, animal 3#): 50.4 µmol/L | Content of serum uric acid (serum uric acid [1]; 6 h after administration, mean): 55.2 µmol/L | Reduction rate or serum uric acid (serum uric acid [2]; 1 h after UA administration vs model group, animal 1#): 35.5% | Reduction rate or serum uric acid (serum uric acid [2]; 1 h after UA administration vs model group, animal 2#): 26.2% | Reduction rate or serum uric acid (serum uric acid [2]; 1 h after UA administration vs model group, animal 3#): 56.0% | Reduction rate or serum uric acid (serum uric acid [2]; 1 h after UA administration vs model group, mean): 39.2% | Reduction rate or serum uric acid (serum uric acid [2]; 2 h after UA administration vs model group, animal 1#): 67.1% | Reduction rate or serum uric acid (serum uric acid [2]; 2 h after UA administration vs model group, animal 2#): 37.2% | Reduction rate or serum uric acid (serum uric acid [2]; 2 h after UA administration vs model group, animal 3#): 45.5% | Reduction rate or serum uric acid (serum uric acid [2]; 2 h after UA administration vs model group, mean): 49.1% | Reduction rate or serum uric acid (serum uric acid [2]; 2 h after administration of test sample vs before administration (healthy monkeys), animal 1#): 46.4% | Reduction rate or serum uric acid (serum uric acid [2]; 2 h after administration of test sample vs before administration (healthy monkeys), animal 2#): 30.2% | Reduction rate or serum uric acid (serum uric acid [2]; 2 h after administration of test sample vs before administration (healthy monkeys), animal 3#): 1.56% | Reduction rate or serum uric acid (serum uric acid [2]; 2 h after administration of test sample vs before administration (healthy monkeys), mean): 26.1% | Reduction rate or serum uric acid (serum uric acid [2]; 4 h after UA administration vs model group, animal 1#): 64.3% | Reduction rate or serum uric acid (serum uric acid [2]; 4 h after UA administration vs model group, animal 2#): 77.1% | Reduction rate or serum uric acid (serum uric acid [2]; 4 h after UA administration vs model group, animal 3#): 32.6% | Reduction rate or serum uric acid (serum uric acid [2]; 4 h after UA administration vs model group, mean): 58.0% | Content of serum uric acid (serum uric acid [2]; 1 h after UA administration, animal 1#): 75.3 µmol/L | Content of serum uric acid (serum uric acid [2]; 1 h after UA administration, animal 2#): 97.5 µmol/L | Content of serum uric acid (serum uric acid [2]; 1 h after UA administration, animal 3#): 53.1 µmol/L | Content of serum uric acid (serum uric acid [2]; 1 h after UA administration, mean): 75.3 µmol/L | Content of serum uric acid (serum uric acid [2]; 2 h after UA administration, animal 1#): 26.6 µmol/L | Content of serum uric acid (serum uric acid [2]; 2 h after UA administration, animal 2#): 58.0 µmol/L | Content of serum uric acid (serum uric acid [2]; 2 h after UA administration, animal 3#): 37.0 µmol/L | Content of serum uric acid (serum uric acid [2]; 2 h after UA administration, mean): 40.5 µmol/L | Content of serum uric acid (serum uric acid [2]; 4 h after UA administration, animal 1#): 28.4 µmol/L | Content of serum uric acid (serum uric acid [2]; 4 h after UA administration, animal 2#): 12.3 µmol/L | Content of serum uric acid (serum uric acid [2]; 4 h after UA administration, animal 3#): 43.2 µmol/L | Content of serum uric acid (serum uric acid [2]; 4 h after UA administration, mean): 28.0 µmol/L | Content of serum uric acid (serum uric acid [2]; intravenous, 2 h after administration of test sample (before UA), animal 1#): 12.3 µmol/L | Content of serum uric acid (serum uric acid [2]; intravenous, 2 h after administration of test sample (before UA), animal 2#): 37.0 µmol/L | Content of serum uric acid (serum uric acid [2]; intravenous, 2 h after administration of test sample (before UA), animal 3#): 34.6 µmol/L | Content of serum uric acid (serum uric acid [2]; intravenous, 2 h after administration of test sample (before UA), mean): 28.0 µmol/L | effect on content of serum uric acid in the test monkeys (in words) (serum uric acid [2]; compared to the model group (self-comparation)): significantly reduce | IL-1β (IL-1β, IL-6, KC and TNFα; 30 mg/kg intragastric): 79.2 pg/mL | KC (IL-1β, IL-6, KC and TNFα; 30 mg/kg intragastric): 8742.1 pg/mL | TNF-α (IL-1β, IL-6, KC and TNFα; 30 mg/kg intragastric): 29.7 pg/mL | IL-1β (IL-1β, IL-6, KC and TNFα; 100 mg/kg intragastric): 88.6 pg/mL | KC (IL-1β, IL-6, KC and TNFα; 100 mg/kg intragastric): 5757.4 pg/mL | TNF-α (IL-1β, IL-6, KC and TNFα; 100 mg/kg intragastric): 18.7 pg/mL | effect on increase of IL-6, KC and TNFα (in words) (IL-1β, IL-6, KC and TNFα; oral dose of 100 mg/kg): significantly inhibit | Leukocyte count: Basophil (MSU-induced air sacs; 30 mg/kg intragastric): 0 ± 0 *10^4/air sacs | Leukocyte count: Eosinocyte (MSU-induced air sacs; 30 mg/kg intragastric): 5.8 ± 1.2 *10^4/air sacs | Leukocyte count: Lymphocyte (MSU-induced air sacs; 30 mg/kg intragastric): 8.1 ± 1.2 *10^4/air sacs | Leukocyte count: Monocyte (MSU-induced air sacs; 30 mg/kg intragastric): 174.2 ± 35.4 *10^4/air sacs | Leukocyte count: Neutrophil (MSU-induced air sacs; 30 mg/kg intragastric): 18.6 ± 6.4^$ *10^4/air sacs | Total cell count (MSU-induced air sacs; 30 mg/kg intragastric): 206.8 ± 42.9^$ *10^4/air sacs | Leukocyte count: Basophil (MSU-induced air sacs; 100 mg/kg intragastric): 0 ± 0 *10^4/air sacs | Leukocyte count: Eosinocyte (MSU-induced air sacs; 100 mg/kg intragastric): 4.6 ± 1.4 *10^4/air sacs | Leukocyte count: Lymphocyte (MSU-induced air sacs; 100 mg/kg intragastric): 8.0 ± 1.9 *10^4/air sacs | Leukocyte count: Monocyte (MSU-induced air sacs; 100 mg/kg intragastric): 151.4 ± 24.1 *10^4/air sacs | Leukocyte count: Neutrophil (MSU-induced air sacs; 100 mg/kg intragastric): 12.2 ± 3.4^$ *10^4/air sacs | Total cell count (MSU-induced air sacs; 100 mg/kg intragastric): 176.2 ± 29.6^$$$ *10^4/air sacs | effect on increase of the total cell count and neutrophil count in the lavage fluid caused by MSU (in words) (MSU-induced air sacs; compound A at the oral doses of 30 mg/kg and 100 mg/kg): significantly inhibit
